Measurements as given in PubChem BioAssay AID1918935 (Molecular Pharmacology Branch, DTP, NCI, 2023).
Where “and” joins values, the source holds several entries; their conditions need not be identical. Identical values can stand only once.

Tested on: 324938-238-R-J1-PDC complex spheroid viability
Experiment: Anticancer human tumor 324938-238-R-J1-PDC patient-derived bladder carcinoma cell line growth inhibition
Settings: for viability, T/C: stronger effect = lower value
Method in brief: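 Multicellular complex spheroids of tumor cells with human endothelial cells (HUVEC) and mesenchymal stem cells; the LSD1 inhibitor iadademstat was combined with standard-of-care or investigational agents. Top concentration at or near clinical Cmax, half-log dilutions; final DMSO ≤0.25%.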

[1] = curve of first compound, second compound 0.1 µM
[2] = curve of first compound, second compound 0.316 µM
[3] = curve of first compound, second compound 1 µM
[4] = curve of first compound, second compound 3.16 µM
[5] = curve of first compound, second compound 10 µM
[6] = second compound 0.1 µM, first compound 0.0316 µM
[7] = second compound 0.1 µM, first compound 0.1 µM
[8] = second compound 0.1 µM, first compound 0.316 µM
[9] = second compound 0.1 µM, first compound 1 µM
[10] = second compound 0.1 µM, first compound 3.16 µM
[11] = second compound 0.1 µM, first compound 10 µM
[12] = second compound 0.316 µM, first compound 0.0316 µM
[13] = second compound 0.316 µM, first compound 0.1 µM
[14] = second compound 0.316 µM, first compound 0.316 µM
[15] = second compound 0.316 µM, first compound 1 µM
[16] = second compound 0.316 µM, first compound 3.16 µM
[17] = second compound 0.316 µM, first compound 10 µM
[18] = second compound 1 µM, first compound 0.0316 µM
[19] = second compound 1 µM, first compound 0.1 µM
[20] = second compound 1 µM, first compound 0.316 µM
[21] = second compound 1 µM, first compound 1 µM
[22] = second compound 1 µM, first compound 3.16 µM
[23] = second compound 1 µM, first compound 10 µM
[24] = second compound 3.16 µM, first compound 0.0316 µM
[25] = second compound 3.16 µM, first compound 0.1 µM
[26] = second compound 3.16 µM, first compound 0.316 µM
[27] = second compound 3.16 µM, first compound 1 µM
[28] = second compound 3.16 µM, first compound 3.16 µM
[29] = second compound 3.16 µM, first compound 10 µM
[30] = second compound 10 µM, first compound 0.0316 µM
[31] = second compound 10 µM, first compound 0.1 µM
[32] = second compound 10 µM, first compound 0.316 µM
[33] = second compound 10 µM, first compound 1 µM
[34] = second compound 10 µM, first compound 3.16 µM
[35] = second compound 10 µM, first compound 10 µM
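Note: spheroids also contain HUVEC and human MSCs and agents combined with iadademstat; spheroids exposed to agents for 7 days before readout.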

Structure (SMILES) | IC50 [1] [µM] | IC50 [2] [µM] | IC50 [3] [µM] | IC50 [4] [µM] | IC50 [5] [µM] | viability, T/C [6] [%] | viability, T/C [7] [%] | viability, T/C [8] [%] | viability, T/C [9] [%] | viability, T/C [10] [%] | viability, T/C [11] [%] | viability, T/C [12] [%] | viability, T/C [13] [%] | viability, T/C [14] [%] | viability, T/C [15] [%] | viability, T/C [16] [%] | viability, T/C [17] [%] | viability, T/C [18] [%] | viability, T/C [19] [%] | viability, T/C [20] [%] | also measured
CC1(C)CCC(CN2CCN(c3ccc(C(=O)NS(=O)(=O)c4ccc(NCC5CCOCC5)c([N+](=O)[O-])c4)c(Oc4cnc5[nH]ccc5c4)c3)CC2)=C(c2ccc(Cl)cc2)C1 + NC1CCC(NC2CC2c2ccccc2)CC1 | 5.12 | 5.64 | 4.25 | 4.62 | 4.48 | 75.7 | 71.4 | 72.2 | 71 | 65.2 | 29.1 | 74.2 | 75.5 | 79.7 | 71.2 | 69.7 | 30.9 | 75.2 | 78 | 68.7 | viability, T/C [21]: 66.1%; viability, T/C [22]: 60.6%; viability, T/C [23]: 26.7%; viability, T/C [24]: 68.3%; viability, T/C [25]: 68%; viability, T/C [26]: 68.8%; viability, T/C [27]: 70.8%; viability, T/C [28]: 61.7%; viability, T/C [29]: 24.8%; viability, T/C [30]: 71.7%; viability, T/C [31]: 64.3%; viability, T/C [32]: 64.7%; viability, T/C [33]: 70.4%; viability, T/C [34]: 59.5%; viability, T/C [35]: 26%
NC1CC1c1ccc(-c2cccc(O)c2)cc1 (stereo not drawn) |  |  |  |  |  |  |  |  |  |  |  |  |  |  |  |  |  |  |  |  | viability, T/C (compound 0.1 µM): 86.9% and 102% and 91.3%; viability, T/C (compound 3.16 µM): 73.9% [middle of 23 runs]; IC50 (compound alone, run of 12/07/2021): > 10 µM
CC(C)c1c(-c2ccccc2)nc2c(C#N)c[nH]n2c1=O + NC1CC1c1ccc(-c2cccc(O)c2)cc1 | > 10 | > 10 | > 10 | > 10 | > 10 | 104 | 98.2 | 101 | 94 | 90.8 | 72.6 | 82.9 | 84.9 | 87.2 | 82.6 | 88.7 | 79.1 | 85.7 | 99.3 | 85.4 | viability, T/C [21]: 89.1%; viability, T/C [22]: 81.7%; viability, T/C [23]: 81%; viability, T/C [24]: 86.7%; viability, T/C [25]: 92.1%; viability, T/C [26]: 86.5%; viability, T/C [27]: 89.7%; viability, T/C [28]: 82.7%; viability, T/C [29]: 77.3%; viability, T/C [30]: 89.5%; viability, T/C [31]: 85.4%; viability, T/C [32]: 86.9%; viability, T/C [33]: 88.9%; viability, T/C [34]: 89.3%; viability, T/C [35]: 80.8%
COc1ccc([C@@H](O)c2cc(-c3ncnc4cc(N5CCOCC5)ccc34)c(F)cc2Cl)nn1 + NC1CCC(NC2CC2c2ccccc2)CC1 | 1.75 | 1.87 | 1.33 | 0.944 | 1.09 | 81.4 | 70.8 | 63.3 | 61.1 | 42.8 | 26.8 | 80.8 | 76.7 | 61.4 | 58 | 47.7 | 28.9 | 72.9 | 73.4 | 65.2 | viability, T/C [21]: 50.3%; viability, T/C [22]: 42.6%; viability, T/C [23]: 28.5%; viability, T/C [24]: 70%; viability, T/C [25]: 78%; viability, T/C [26]: 59.3%; viability, T/C [27]: 48.4%; viability, T/C [28]: 38.3%; viability, T/C [29]: 26.4%; viability, T/C [30]: 64.8%; viability, T/C [31]: 76.5%; viability, T/C [32]: 61.6%; viability, T/C [33]: 50.2%; viability, T/C [34]: 37%; viability, T/C [35]: 26%
